Data published in patent publication US5545638A, “Method of treating gastrointestinal motility disorders” (Novo Nordisk A/S, priority 1995, dated 1996).
Where a name gives a salt, the structure may show the parent alone.

Target: muscarinic receptors
Experiment: Inhibition of ^3 H-oxotremorine-M binding to muscarinic receptors
Parameters: species or system rat (male Sprague-Dawley, cerebral cortex)
Conditions: 3 nM ^3 H-oxotremorine-M, rat cerebral cortical membranes, 15 min, 25° C., pH 7.4; concentration to inhibit specific binding 50%; read-out: Inhibition of ^3 H-Oxo
Method: The affinity of the compounds for the muscarinic receptors was determined using the non-selective agonist ligand, ^3 H-oxotremorine-M. Birdsdall N. J. M., Hulme E. C., and Burgen A. S. V., "The Character of Muscarinic Receptors in Different Regions of the Rat Brain", 207 Proc. Roy. Soc. 1 (London, Series B, 1980). Each compound was tested to determine the affinity of the compound for the muscarinic receptors using the following procedure.
For each in vitro binding, male Sprague-Dawley (Harlan Sprague-Dawley, Indianapolis, Ind.) rats weighing from about 100 to about 150 grams each were sacrificed by decapitation. The brains were quickly removed and the cerebral cortex were dissected from the brain. The cerebral cortex tissue was homogenized in 10 volumes of 0.32M sucrose and homogenized for about 10 minutes at about 1000×g. […]
The aforementioned homogenates mixture was incubated for about 15 minutes at about 25° C. and then the homogenates were filtered through glass filters (Whatman, GF/C) with vacuum. The filters were washed 3 times with about 2 ml of cold tris-Cl buffer, and placed in scintillation vials containing about 10 ml of scintillation fluid (Ready Protein+, Beckman, Fullerton, Calif.). Radioactivity trapped on the filters was determined by liquid scintillation spectrometry. Nonspecific binding was determined using 1 μM atropine. […]

IC50: 2.7 nM
Compound: C=CCCCCOc1nsnc1C1=CCCN(C)C1 [Compound 33, 3-(3-(5-Hexenyloxy)-1,2,5-thiadiazol-4-yl)-1,2,5,6-tetrahydro-1-methylpyridine oxalate]
